Structures are written as SMILES.

For the compound `CCC(=C(c1ccc(O)cc1)c1ccc(O)cc1)c1ccc(/C=C/C(=O)O)cc1` [Example 1, (2E)-3-{4-[1-ethyl-2,2-bis(4-hydroxyphenyl)ethenyl]phenyl}-2-propenoic acid], the melting point lay in the range of 280 to 281 °C. `CCC(=C(c1ccc(O)cc1)c1ccc(O)cc1)c1ccc(OCCO)c(OC)c1` [Example 27, 4,4′-{2-[4-[(2-hydroxyethyl)oxy]-3-(methyloxy)phenyl]-1-butene-1,1-diyl}diphenol] displayed a melting point of 158 to 159 °C.

The record behind these values is patent US20080234199A1, “Chemical Compounds” (Smithkline Beecham Corporation, priority 2005, published 2008).
